Reference: US9868763B2, “Modulators of protease activated receptors” (The University of Queensland, priority 2011, dated 2018)

Legend:
PAR2 [1] = target: T1, PAR2 (Mus musculus, UniProt P55086); assay: Intracellular calcium mobilization in MIN6 beta cells; assay type: cell-based; details: concentration-dependent
T1 construct: endogenous in cells; host or cells: MIN6 (mouse pancreatic beta cell line)
T1 sequence (P55086 26-399): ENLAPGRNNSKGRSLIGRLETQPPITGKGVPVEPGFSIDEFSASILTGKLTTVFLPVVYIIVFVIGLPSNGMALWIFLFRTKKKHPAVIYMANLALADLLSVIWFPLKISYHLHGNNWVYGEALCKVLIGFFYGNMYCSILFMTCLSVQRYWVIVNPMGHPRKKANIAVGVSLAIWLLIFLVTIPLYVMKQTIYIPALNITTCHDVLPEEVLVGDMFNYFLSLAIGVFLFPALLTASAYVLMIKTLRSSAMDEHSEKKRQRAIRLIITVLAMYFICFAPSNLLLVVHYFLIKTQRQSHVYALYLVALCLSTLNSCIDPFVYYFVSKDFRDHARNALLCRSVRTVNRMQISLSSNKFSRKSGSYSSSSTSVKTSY
Experimental: Results: Pathogenesis of pancreatic dysfunction is linked to chronic nutritional surplus and elevated fatty acids, so in vivo and in vitro effects of compound 52 were evaluated on rat pancreas and mouse MIN6 beta cells. […] PAR2 agonists and compound 52 were further evaluated in vitro for glucose-stimulated insulin secretion (GSIS) and intracellular calcium mobilization in mouse MIN6 beta cells.

PAR2 [2] = target: T2, PAR2 (Homo sapiens, UniProt P55085); assay: PAR2 agonist inhibition (antagonism): intracellular Ca2+ release in HT29 cells; assay type: cell-based; design: endogenous in cells; host or cells: HT29 (human colorectal adenocarcinoma); details: other ligands; inhibiting Ca2+ release in HT29 cells; 30 min pre-incubation, agonist at EC80
T2 sequence (P55085 26-397): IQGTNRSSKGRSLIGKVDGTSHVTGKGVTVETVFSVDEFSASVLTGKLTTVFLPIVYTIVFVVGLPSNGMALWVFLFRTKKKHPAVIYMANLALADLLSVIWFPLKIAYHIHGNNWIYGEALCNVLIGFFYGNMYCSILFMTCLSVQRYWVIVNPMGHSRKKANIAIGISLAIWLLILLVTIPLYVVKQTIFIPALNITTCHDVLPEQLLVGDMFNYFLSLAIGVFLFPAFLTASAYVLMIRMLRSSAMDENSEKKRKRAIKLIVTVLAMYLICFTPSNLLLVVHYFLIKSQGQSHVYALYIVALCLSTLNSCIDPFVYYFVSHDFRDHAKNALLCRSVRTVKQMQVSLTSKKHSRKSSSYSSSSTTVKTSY
Experimental: Cells are seeded overnight in 96-well black walled, clear bottomed, plate at approximately 2×10^4 to 4×10^5 cells per well. […] The cells are then washed twice with HBSS and transferred to a Polarstar spectrofluorimeter (BMG, Durham N.C.).
The cells are prepared as outlined above then treated with the ‘putative’ antagonist 30 min prior to the addition of either trypsin or a synthetic agonist at a concentration equal to the agonists EC80.
The cells were then treated with 1 μM of the PAR2 agonist 2f-LIGRLO-NH2 (FIG. 2A, n=5) or 100 nM Trypsin (FIG. 2B, n=1). Each data point represents mean±SEM. Net changes in fluorescence were calculated as a percentage relative to the maximum response given 1 μM 2f-LIGRLO-NH2 or 100 nM Trypsin. Changes in fluorescence (% response) were plotted against logarithmic compound concentrations. The half maximal inhibitory concentration (IC50) values were derived from the dose response curve using a nonlinear regression curve in Graphpad Prism v5.

PAR2 [3] = target: T2, PAR2; details: cited from earlier work
[4] = tested on: 2furoyl-LIGRLO-NH2-induced paw oedema; assay: PAR2 agonist-induced paw oedema; assay type: in vivo, Wistar rat; details: 10 mg/kg p.o. in olive oil, agonist 350 μg/paw 2 h after oral dose
Experimental: The methods used are based on those previously described (Kelso, E. B., et al. Arthritis Rheum 2007, 56, 765-71; Kelso, E. B., et al. J Pharmacol Exp Ther 2006, 316, 1017-24; and Vergnolle, N. J Immunol 1999, 163, 5064-9). Male Wistar rats (n=3 per group) are used. Briefly, rats are given either 5 or 10 mg/kg of a compound of the present invention (p.o. via gavage in olive oil, approx. 500 μL, weight adjusted). Control animals receive only olive oil (500 μL p.o.). Two hours later, the PAR2 agonist 2-furoyl-LIGRLO (350 μg/paw in saline, 100 μL) is injected into the plantar surface (i.pl.) of the right paw pad using a 30 G needle. The left paw acts as a control, receiving saline only. Paw thickness and width are measured after 30 minutes and hourly using digital calipers (World Precision Instruments, USA) and swelling is calculated in area (mm^2; thickness multiplied by width) and expressed as a percentage change from baseline of each individual paw.
Based on previous methods (Kelso E B et al., J Pharmacol Exp Ther 2006, 316(3):1017-24; Suen J Y et al., Br J Pharmacol 2011, doi: 10.1111/j.1476-5381.2011.01610.x.), PAR2 antagonist 52 (10 mg/kg s.c.; n=4), ENMD-1068 (100 mg/kg s.c.; n=4) or vehicle control (DMSO s.c.; n=2) were administered to male Wistar rats. Baseline paw thickness and width were measured using digital calipers (World Precision Instruments, USA) expressed in area (mm^2; thickness×width). Fifteen minutes later, 2Furoyl-LIGLRO-NH2 (350 μg/paw in 100 μL saline) was injected into of the right hind paw pad (intraplantar, i.pl.). The left hind paw acted as a control, receiving saline only. In a separate experiment, vehicle (500 μL olive oil) versus PAR2 antagonist 52 (10 mg/kg p.o. in 500 μL olive oil) only were administered orally to two groups of rats (4 per group). Two hours later, β-tryptase (human recombinant lung, 20 μg in 100 μL saline) was injected into the right hind paw pad (vehicle in left for control) of all animals in each group. In all experiments, paw swelling was measured and expressed in area (mm^2; thickness×width) and plotted as % change from baseline of each individual paw.

[5] = Stability in rat liver homogenate; assay type: in vitro ADME, Wistar rat; details: 37 °C, up to 180 min
Experimental: Blood and liver is collected form non-drug dosed male and female Wistar rats (aged 8-9 weeks, 200-250 g and 250-300 g respectively). Bloods are centrifuged at 8 K rpm for 5 min. Plasma are pooled and stored at −80° C. for later use. The rat livers are homogenized, diluted with three volumes of PBS, cloth filtered. The filtrate is used directly for stability studies.
Each compound is dissolved in DMSO to make 5 mM stock solution. 10 μL of the stock is diluted with either rat plasma or liver homogenate (490 μL) to make up a starting concentration of […] (triplicates). The mixtures are vortexed and incubated at 37° C. At each time point of 0, 30, 60 and 180 minutes, 100 μL of the mixture is taken and diluted with 300 μL of acetonitrile. The mixture is vortexed and centrifuged. 350 μL of the liquid is transferred into a microfuge tube and concentrated using a rotational vacuum concentrator (Christ Beta-RVC, supplied by Quantum Scientific). 100 μL of acetonitrile-water (9:1, v/v) is added to the residue, vortexed and immediately analysed by LCMS/MS. Data from these experiments are expressed as percent of peak area recorded from the LCMS/MS trace at time zero (t0).

[6] = tested on: TNBS-induced chronic colitis; assay: TNBS-induced chronic colitis model; assay type: in vivo, rat; details: 52 10 mg/kg/day, sulfasalazine 100 mg/kg/day p.o.
Experimental: On day 0, rats were weighed, given respective treatments of either sulfasalazine (100 mg/kg in olive oil p.o.), compound 52 (10 mg/kg in olive oil), or vehicle (500 l olive oil p.o.), and fasted for 24 h with water supplied ad libitum. The next day (day 1), rats were weighed, dosed with respective compound, and anesthetized with isofluorane. A polyethylene catheter was inserted intrarectally (8 cm). Control and drug-treated animals received an intracolonic dose of TNBS (80 mg/kg in saline and 250 l, 50% ethanol in water) (Fiorucci at al., 2001). Sham animals received vehicle only, with TNBS replaced by equivolume water. Rats were maintained in an inclined position (40°) for 30 min, then allowed to recover with food and water supplied. Rats were dosed daily with the respective compound, weighed, and scored for general health and disease progression. All rats were sacrificed on day 8 of experimentation unless they were sacrificed earlier. Disease progression and post-mortem colonic histopathology was scored by the following methods. PAR2 and tryptase co-localization were investigated by using immunohistochemistry.
DAI for both acute and chronic models was assessed and scored by an expert blinded to treatments. Scores incorporated mobility, gastrointestinal pathology, discomfort, and generalized sickness behaviour criteria (each scored 0-3). Any animal that reached stage 3 in any criteria was euthanized by CO2 inhalation and recorded as a disease-related mortality. Scores were summed and expressed as total disease score (maximum 12). DAI was measured at endpoint only (10 h) in the acute study and daily in the chronic TNBS study.
Colons were dissected post-mortem and given a macroscopic disease score based on that described previously (Bobin-Dubigeon et al., 2001) with some minor alterations (maximal score 14). The entire colon length was removed between the ileocolic and colorectal junction. Length and maximal distension width were measured. Sections of affected colon were taken for biochemical analysis, histology, and wet/dry weight.

In the case of SLIGRL-NH2, the “intracellular calcium release in MIN6 beta cells” value (PAR2 [1]) is reported as “activated intracellular calcium release”.

Work on CC[C@H](C)[C@@H](NC(=O)[C@H](CC1CCCCC1)NC(=O)C1CCCN1)C(=O)N1CCC2(C=Cc3ccccc32)CC1 (some centres unmarked) [Compound 50] yielded an IC50 (PAR2 [2]) of 50 µM.

For 2-furoyl-LIGRL-NH2, the “agonist potency higher than SLIGRL-NH2” value (PAR2 [3]) is given as ~20 fold and the “selectivity among PARs” value (PAR2 [3]) is given as “selective for PAR2 over PAR1 and PAR4”.

CC[C@H](C)[C@@H](NC(=O)[C@H](CC1CCCCC1)NC(=O)c1nc[nH]n1)C(=O)N1CCC2(C=Cc3ccccc32)CC1 [Compound 45] gave an IC50 (PAR2 [2]) of 15 µM.

In the case of CC[C@H](C)[C@H](NC(=O)[C@H](CC1CCCCC1)NC(=O)c1ccno1)C(=O)N1CCC(c2ccccc2)CC1 [Compound 30, 5-isoxazoyl-Cha-Ile-(4-phenyl)piperidine], the “paw swelling induced by 2-f-LIGRLO-NH2” value [4] is reported as “reduced the paw swelling” and the “stability in rat liver homogenate” value [5] is reported as “decomposed to varied degree”.

In the case of CC[C@H](C)[C@H](C(=O)N1CCC2(C=Cc3ccccc32)CC1)N(C)C(=O)[C@@H](N)CC1CCCCC1 [Compound 51], the IC50 (PAR2 [2]) is reported as 5 to 10 µM.

For CC[C@H](C)[C@@H](NC(=O)[C@H](CC1CCCCC1)NC(=O)C1CCC(=O)N1)C(=O)N1CCC2(C=Cc3ccccc32)CC1 (some centres unmarked) [Compound 49], the IC50 (PAR2 [2]) was 25 µM.

CC[C@H](C)[C@@H](NC(=O)[C@H](CC1CCCCC1)NC(=O)c1c[nH]cn1)C(=O)N1CCC2(C=Cc3ccccc32)CC1 [Compound 47] gave an IC50 (PAR2 [2]) of 10 µM.

With CO[C@H](C)[C@@H](NC(=O)[C@H](CC1CCCCC1)NC(=O)c1ccno1)C(=O)N1CCC2(C=Cc3ccccc32)CC1 [Compound 44, 5-isoxazoyl-Cha-Thr(Me)-spiro[indene-1,4′-piperidine]] the “paw swelling induced by 2-f-LIGRLO-NH2” value [4] was “reduced the paw swelling” and the “stability in rat liver homogenate” value [5] was “decomposed to varied degree”.

With CC[C@H](C)[C@@H](NC(=O)[C@H](CC1CCCCC1)NC(=O)c1cc(C)on1)C(=O)N1CCC2(C=Cc3ccccc32)CC1 [Compound 46] the IC50 (PAR2 [2]) was 25 µM.

For CC[C@H](C)[C@@H](NC(=O)[C@H](CC1CCCCC1)NC(=O)c1cc(N)no1)C(=O)N1CCC2(C=Cc3ccccc32)CC1 [Compound 42, 5-(3-amino-isoxazoyl)-Cha-Ile-spiro[indene-1,4′-piperidine]], the “paw swelling induced by 2-f-LIGRLO-NH2” value [4] was “reduced the paw swelling” and the “stability in rat liver homogenate” value [5] was “decomposed to varied degree”.

In the case of CC[C@H](C)[C@@H](NC(=O)[C@H](CC1CCCCC1)NC(=O)c1ccno1)C(=O)N1CCC2(CCc3ccccc32)CC1 [Compound 53], the IC50 (PAR2 [2]) is reported as 3 µM.

With CC[C@H](C)[C@H](NC(=O)[C@H](CC1CCCCC1)NC(=O)c1ccno1)C(=O)NCc1ccccc1OC [Compound 18, 5-isoxazoyl-Cha-Ile-aminomethyl-(2-methoxy)phenyl] the “paw swelling induced by 2-f-LIGRLO-NH2” value [4] was “reduced the paw swelling” and the “stability in rat liver homogenate” value [5] was “decomposed to varied degree”.

For trypsin, the “intracellular calcium release in MIN6 beta cells” value (PAR2 [1]) was “activated intracellular calcium release”.

For CC[C@H](C)[C@@H](NC(=O)[C@H](CC1CCCCC1)NC(=O)C1CCNCC1)C(=O)N1CCC2(C=Cc3ccccc32)CC1 [Compound 48], the IC50 (PAR2 [2]) was 50 µM.

Molecule CC[C@H](C)[C@@H](NC(=O)[C@@H](N)CC1CCCCC1)C(=O)N1CCC2(C=Cc3ccccc32)CC1 [Compound 41] has an IC50 (PAR2 [2]) of 17 µM.

In the case of O=C(O)c1cc(/N=N/c2ccc(S(=O)(=O)Nc3ccccn3)cc2)ccc1O [sulfasalazine, reference compound], the TNBS-mediated mortality [6] is reported as 33.3% and the “DAI compared with TNBS-controls” value ([6]; from day 2 onward) is reported as “marked improvements in DAI”.
